Experimental data as given in patent US20200129524A1, “PERSONALIZED CONTRACEPTIVE FORMULATIONS” (Agile Therapeutics, Inc., priority 2017, published 2020).
Where “and” joins values, the source holds several entries; their conditions need not be identical. Equal values may be shown once.

Legend:
[1] = cited from earlier work
[2] = tested on: healthy women; test: LNG level and required dose calculated from the trial's pregnancy rates (equations 2-4); assay type: in vivo; settings: for LNG Level / Required Dose: 30 μg/day EE; for LNG Required Dose: range for pregnancy rates between 3% and 1.5%, EE 30 ug/day
Description: There is an important unmet need pertaining to the determination of the amount of progestin required to provide contraceptive effectiveness to all women based on their BMI or body weight. Without intending to be bound to a particular understanding of mechanism of action, this invention is premised in part on the understanding that contraceptive effectiveness is based on the principle that there is a physical reaction or binding of a drug to its receptor and that therefore drug concentration will play an important part in contraceptive effectiveness. Further, by knowing the effect of a progestin amount (drug concentration) on contraceptive effectiveness on different BMI or body weight women, we can determine the amounts needed to provide effectiveness for any woman of known BMI or body weight. Given that contraceptive hormones interact reversibly with their receptors and assuming the resultant effect is proportional to the receptors occupied, a relationship between the effect and the free concentration of drug can be written as (Goodman and Gilman's Pharmaceutical Basis of Therapeutics, 8th edition, p. 44) Effect=Maximal effect (D)/(Kd+D) (equation 1) Where D is the concentration of the circulating free drug and Kd is the dissociation constant for the drug-drug receptor complex, i.e., the ratio of the rate constants of the forward and dissociation binding reactions. The steady state concentration D of the circulating free drug in the plasma is correlated to the dosage rate, by the equation (Goodman and Gilman's Pharmaceutical Basis of Therapeutics, 8th edition, p. 21), Dosage Rate=CL×D (CL is the clearance and it is constant for any specific drug). Therefore D=Dosage rate/CL. Substituting this in equation 1 one obtains Effect=Maximal effect×Dosage rate/CL/(Kd+Dosage rate/CL) (equation 2) […] Note that when equation 3 is substituted into equation 2 the clearance CL cancels out and is not involved in the calculations. Using the above formulas and isolating for D yields this equation: D=(Kd*Effect)/(1−Effect) (equation 4) […] They represent the relative dosage compared to that of the women in the 90 to 120 pound category (i.e. those that had 1.5% pregnancy rate). […] Therefore, D=(1.827*0.973)/(0.027) (equation 5) D=67 μg/day (equation 6) Required Dose=120×120/67=215 (equation 7). We consider the maximum acceptable percent pregnancy for 100 women over a period of one year to be 3%. […] The same analysis can be performed using the BMI of the women. […] The same analysis as performed for the required dosage based on women's body weight was performed using BMI and the data are shown in Tables 4 and 5 and plotted in FIG. 4. Although it may be easier for the medical practitioner to use the body weight of the subject in the treatment process, they can also use the BMI. It is therefore another object of the invention to treat women in a personalized manner depending on their BMI.

[3] = Free LNG circulating in plasma versus EE delivered (WO2016187269)
[4] = for every 10 μg per day of EE delivered
[5] = 1.5% pregnancy rate, BMI >17.5 ≤ 22.5
[6] = 1.5% pregnancy rate, BMI >22.5 ≤ 27.5
[7] = 1.5% pregnancy rate, BMI >27.5 ≤ 32.5
[8] = 1.5% pregnancy rate, BMI >32.5 ≤ 37.5
[9] = 1.5% pregnancy rate, BMI >37.5 ≤ 42.5
[10] = 1.5% pregnancy rate, BMI >42.5 ≤ 47.5
[11] = 1.5% pregnancy rate, BMI >47.5 ≤ 52.5
[12] = 1.5% pregnancy rate, weight 90 ≥ W <120 lbs
[13] = 1.5% pregnancy rate, weight 120 ≥ W <150 lbs
[14] = 1.5% pregnancy rate, weight 150 ≥ W <180 lbs
[15] = 1.5% pregnancy rate, weight 180 ≥ W <210 lbs
[16] = 1.5% pregnancy rate, weight 210 ≥ W <240 lbs
[17] = 1.5% pregnancy rate, weight 240 ≥ W <270 lbs
[18] = 1.5% pregnancy rate, weight 270 ≥ W lbs
[19] = 3% pregnancy rate, BMI >17.5 ≤ 22.5
[20] = 3% pregnancy rate, BMI >22.5 ≤ 27.5
[21] = 3% pregnancy rate, BMI >27.5 ≤ 32.5
[22] = 3% pregnancy rate, BMI >32.5 ≤ 37.5
[23] = 3% pregnancy rate, BMI >37.5 ≤ 42.5
[24] = 3% pregnancy rate, BMI >42.5 ≤ 47.5
[25] = 3% pregnancy rate, BMI >47.5 ≤ 52.5
[26] = 3% pregnancy rate, weight 90 ≥ W <120 lbs
[27] = 3% pregnancy rate, weight 120 ≥ W <150 lbs
[28] = 3% pregnancy rate, weight 150 ≥ W <180 lbs
[29] = 3% pregnancy rate, weight 180 ≥ W <210 lbs
[30] = 3% pregnancy rate, weight 210 ≥ W <240 lbs
[31] = 3% pregnancy rate, weight 240 ≥ W <270 lbs
[32] = 3% pregnancy rate, weight 270 ≥ W lbs

In the case of `C#C[C@]1(O)CC[C@H]2[C@@H]3CCC4=CC(=O)CC[C@@H]4[C@H]3CC[C@@]21CC` [LNG, levonorgestrel], the “increase of free LNG circulating in the plasma” value [1, 4] is listed as 300 picograms per ml, the “approximate steady state level of LNG” value ([1]; plasma) is listed as roughly 1500 picograms LNG per ml and the “LNG Level” value [2, 5] is listed as 74.7 µg/day. The “Required Dose” value [2, 5] was 192 µg/day, the “LNG Level” value [2, 6] was 52.7 µg/day and the “Required Dose” value [2, 6] was 273 µg/day. For the same compound, the “LNG Level” value [2, 7] was 67.1 µg/day, the “Required Dose” value [2, 7] was 215 µg/day and the “LNG Level” value [2, 8] was 41.1 µg/day. For the same compound, the “Required Dose” value [2, 8] was 350 µg/day, the “LNG Level” value [2, 9] was 26.6 µg/day and the “Required Dose” value [2, 9] was 541 µg/day. For the same compound, the “LNG Level” value [2, 10] was 38.9 µg/day, the “Required Dose” value [2, 10] was 370 µg/day and the “LNG Level” value [2, 11] was 25.6 µg/day. For the same compound, the “Required Dose” value [2, 11] was 563 µg/day, the “LNG Level” value [2, 12] was 120.0 µg/day and the “Required Dose” value [2, 12] was 120 µg/day. The “LNG Level” value [2, 13] was 67 µg/day and 66.9 µg/day, the “Required Dose” value [2, 13] was 215 µg/day and 210 µg/day and the “LNG Level” value [2, 14] was 46.1 µg/day. The “Required Dose” value [2, 14] was 312 µg/day, the “LNG Level” value [2, 15] was 39.6 µg/day and the “Required Dose” value [2, 15] was 364 µg/day. The “LNG Level” value [2, 16] was 45.4 µg/day, the “Required Dose” value [2, 16] was 317 µg/day and the “LNG Level” value [2, 17] was 31.5 µg/day. The “Required Dose” value [2, 17] was 457 µg/day, the “LNG Level” value [2, 18] was 34.1 µg/day and the “Required Dose” value [2, 18] was 422 µg/day. For the same compound, the “LNG Level” value [2, 19] was 152.0 µg/day, the “Required Dose” value [2, 19] was 95 µg/day and the “LNG Level” value [2, 20] was 106.9 µg/day. The “Required Dose” value [2, 20] was 135 µg/day, the “LNG Level” value [2, 21] was 136.1 µg/day and the “Required Dose” value [2, 21] was 106 µg/day. The “LNG Level” value [2, 22] was 83.3 µg/day, the “Required Dose” value [2, 22] was 173 µg/day and the “LNG Level” value [2, 23] was 53.8 µg/day. The “Required Dose” value [2, 23] was 267 µg/day, the “LNG Level” value [2, 24] was 79 µg/day and the “Required Dose” value [2, 24] was 182 µg/day. For the same compound, the “LNG Level” value [2, 25] was 51.8 µg/day, the “Required Dose” value [2, 25] was 278 µg/day and the “LNG Level” value [2, 26] was 241.7 µg/day. The “Required Dose” value [2, 26] was 59 µg/day, the “LNG Level” value [2, 27] was 135.6 µg/day and the “Required Dose” value [2, 27] was 104 µg/day. For the same compound, the “LNG Level” value [2, 28] was 93.5 µg/day, the “Required Dose” value [2, 28] was 154 µg/day and the “LNG Level” value [2, 29] was 80.3 µg/day. The “Required Dose” value [2, 29] was 179 µg/day, the “LNG Level” value [2, 30] was 92.0 µg/day and the “Required Dose” value [2, 30] was 156 µg/day. For the same compound, the “LNG Level” value [2, 31] was 63.8 µg/day, the “Required Dose” value [2, 31] was 226 µg/day and the “LNG Level” value [2, 32] was 69.2 µg/day. The “Required Dose” value [2, 32] was 208 µg/day, the “LNG Required Dose” value ([2]; BMI >17.5 ≤ 22.5) was 95 to 192 µg/day and the “LNG Required Dose” value ([2]; BMI >22.5 ≤ 27.5) was 135 to 273 µg/day. For the same compound, the “LNG Required Dose” value ([2]; BMI >27.5 ≤ 32.5) was 106 to 215 µg/day, the “LNG Required Dose” value ([2]; BMI >32.5 ≤ 37.5) was 173 to 350 µg/day and the “LNG Required Dose” value ([2]; BMI >37.5 ≤ 42.5) was 267 to 541 µg/day. For the same compound, the “LNG Required Dose” value ([2]; BMI >42.5 ≤ 47.5) was 182 to 370 µg/day, the “LNG Required Dose” value ([2]; BMI >47.5 ≤ 52.5) was 278 to 563 µg/day and the “increase of free LNG as share of the approximate steady state level” value [3, 4] was 20%. For the same compound, the “change of free LNG in the plasma” value ([3]; for every one μg per day reduction or increase of EE below or above 30 μg per day) was 30 picograms per ml.
